In US12522576B2, “Polymorphs of D9-THC naphthoylester” (priority 2019, dated 2026):
≈ marks a conversion by molar mass, not a printed value.

Key:
[1] = Competitive ripening (relative thermodynamic stability of non-solvated forms); conditions: for Nature (thermodynamic stability of crystal form): Table 6 summary
[2] = D9 solubility in the liquors at isolation temperature; assay type: physicochemical; conditions: organic solvent or mixture, thermodynamic from solid
Protocol: At the end of each experiment, suspensions were equilibrated at the isolation temperature (25 or 5° C.) for at least 18 hours and the solids and liquors separated by centrifugation at the isolation temperature. The Exo/D9/D8 ratio (Exo-D9-THC-naphthoylester impurity/D9-THC-naphthoylester/D8-THC-naphthoylester) was determined in both the isolated solids and the liquors, from which the % Exo-depletion in the isolated solids was calculated. Several solids were also isolated at elevated temperatures to assess the impact of the isolation temperature on Exo-impurity depletion.
In addition, the solubility of D9 in the liquors was determined in most of the explored solvents and used to estimate the yield.

[3] = Experiment No. 10, n-BuOH, 25 °C
[4] = Experiment No. 14, Toluene/EtOH (1:9), 5 °C
[5] = Experiment No. 16, n-BuOH, 5 °C

SMILES: CCCCCc1cc(OC(=O)c2ccc3ccccc3c2)c2c(c1)OC(C)(C)[C@@H]1CCC(C)=C[C@@H]21 [A, B, C, E, G]
- Form Isolated 1-3 d ([1]; Experiment No. 7, Acetone/MeOH (1:3), 25 °C): E/G
- Form Isolated 1-3 d ([1]; Experiment No. 8, Toluene/EtOH (1:9), 25 °C): G/E
- Form Isolated 1-3 d [1, 3]: B/G
- Form Isolated 4-9 d [1, 3]: B/G
- Form Isolated 4-9 d [1, 4]: B/G
- Form Isolated 26-29 d [1, 4]: G/B(tr)
- Form Isolated 4-9 d [1, 5]: B/G
- Form Isolated 26-29 d [1, 5]: B/G

SMILES: CCCCCc1cc(OC(=O)c2ccc3ccccc3c2)c2c(c1)OC(C)(C)[C@@H]1CCC(C)=C[C@@H]21 [B, G, H]
- Form Isolated 12 d ([1]; Experiment No. 17, Toluene/EtOH (1:9), 5 °C): G/H
- Form Isolated 12 d ([1]; Experiment No. 18, Heptane, 5 °C): H/B(tr)
- Form Isolated 12 d ([1]; Experiment No. 19, n-BuOH, 5 °C): B/H

SMILES: CCCCCc1cc(OC(=O)c2ccc3ccccc3c2)c2c(c1)OC(C)(C)[C@@H]1CCC(C)=C[C@@H]21 [E, G]
- Form Isolated 4-9 d ([1]; Experiment No. 15, Heptane, 5 °C): G/B

SMILES: CCCCCc1cc(OC(=O)c2ccc3ccccc3c2)c2c(c1)OC(C)(C)[C@@H]1CCC(C)=C[C@@H]21 [Form A, (6aR,10aR)-6a,7,8,10a-tetrahydro-6,6,9-trimethyl-3-pentyl-6H-dibenzo[b,d]pyran-1-yl ester]
- Nature (thermodynamic stability of crystal form) [1]: Metastable

SMILES: CCCCCc1cc(OC(=O)c2ccc3ccccc3c2)c2c(c1)OC(C)(C)[C@@H]1CCC(C)=C[C@@H]21 [Form C, (6aR,10aR)-6a,7,8,10a-tetrahydro-6,6,9-trimethyl-3-pentyl-6H-dibenzo[b,d]pyran-1-yl ester]
- solubility ([2]; crystallisation liquors over suspended solid, 5 °C, batch 5, MeCN/MIBK (8:2), seed D, heat T 50, isolation T 5, SP 6, 20.0 mL/g): 21600 µg/mL (≈ 46.1 mM)
- solubility ([2]; crystallisation liquors over suspended solid, 5 °C, batch 5, MeCN/MeOH (9:1), seed D/G, heat T 50, isolation T 5, SP 6, 30.0 mL/g): 8400 µg/mL (≈ 17.9 mM)
- solubility ([2]; crystallisation liquors over suspended solid, 25 °C, batch 5, MeCN, seed D, heat T 50, isolation T 25, SP 5, 30.0 mL/g): 8600 µg/mL (≈ 18.4 mM)
- solubility ([2]; crystallisation liquors over suspended solid, 25 °C, batch 5, MeCN/MIBK (8:2), seed D, heat T 50, isolation T 25, SP 2, 3.2 mL/g): 25500 µg/mL (≈ 54.4 mM)
- solubility ([2]; crystallisation liquors over suspended solid, 25 °C, batch 5, MeCN/MIBK (8:2), seed D, heat T 50, isolation T 25, SP 5, 20.0 mL/g): 22300 µg/mL (≈ 47.6 mM)
- solubility ([2]; crystallisation liquors over suspended solid, 25 °C, batch 5, MeCN/MeOH (9:1), seed D/G, heat T 50, isolation T 25, SP 5, 30.0 mL/g): 8700 µg/mL (≈ 18.6 mM)
- Nature (thermodynamic stability of crystal form) [1]: Metastable

SMILES: CCCCCc1cc(OC(=O)c2ccc3ccccc3c2)c2c(c1)OC(C)(C)[C@@H]1CCC(C)=C[C@@H]21 [Form E, (6aR,10aR)-6a,7,8,10a-tetrahydro-6,6,9-trimethyl-3-pentyl-6H-dibenzo[b,d]pyran-1-yl ester]
- solubility ([2]; crystallisation liquors over suspended solid, 25 °C, batch 5, Nitromethane, seed G, heat T 40, isolation T 25, 32.6 mL/g, SP 3): 7000 µg/mL (≈ 14.9 mM)
- Nature (thermodynamic stability of crystal form) [1]: Metastable

SMILES: CCCCCc1cc(OC(=O)c2ccc3ccccc3c2)c2c(c1)OC(C)(C)[C@@H]1CCC(C)=C[C@@H]21 [Form G, (6aR,10aR)-6a,7,8,10a-tetrahydro-6,6,9-trimethyl-3-pentyl-6H-dibenzo[b,d]pyran-1-yl ester]
- solubility ([2]; crystallisation liquors over suspended solid, 25 °C, batch 5, Anisole/MeOH (1:9), seed E/G, heat T 50, isolation T 25, 9.4 mL/g, SP 3): 8100 µg/mL (≈ 17.3 mM)
- solubility ([2]; crystallisation liquors over suspended solid, 25 °C, batch 5, Cyclohexanone/MeOH (1:3), seed G, heat T 40, isolation T 25, 9.4 mL/g, SP 3): 34400 µg/mL (≈ 73.4 mM)
- solubility ([2]; crystallisation liquors over suspended solid, 25 °C, batch 5, EtOAc/EtOH (1:9), seed G/H, heat T 55, isolation T 25, 5.0 mL/g, SP 15, Exp 53): 17800 µg/mL (≈ 38 mM)
- solubility ([2]; crystallisation liquors over suspended solid, 25 °C, batch 5, EtOAc/MeOH (1:2), seed H, heat T 55, isolation T 25, 8.0 mL/g, SP 21, Exp 50): 18500 µg/mL (≈ 39.5 mM)
- solubility ([2]; crystallisation liquors over suspended solid, 25 °C, batch 5, EtOAc/MeOH (1:3), seed G/H, heat T 55, isolation T 25, 10.0 mL/g, SP 15, Exp 55): 9700 µg/mL (≈ 20.7 mM)
- solubility ([2]; crystallisation liquors over suspended solid, 25 °C, batch 5, MEK/MeOH (3:7), seed G/H, heat T 55, isolation T 25, 5.0 mL/g, SP 15, Exp 51): 23200 µg/mL (≈ 49.5 mM)
- solubility ([2]; crystallisation liquors over suspended solid, 25 °C, batch 5, Toluene/MeOH (1:9), seed E/G, heat T 50, isolation T 25, 9.6 mL/g, SP 3): 6500 µg/mL (≈ 13.9 mM)
- solubility ([2]; crystallisation liquors over suspended solid, 25 °C, batch 5, Toluene/MeOH (5:95), seed H, heat T 50, isolation T 25, 10.0 mL/g, SP 20, Exp 44): 3400 µg/mL (≈ 7.26 mM)
- solubility ([2]; crystallisation liquors over suspended solid, 25 °C, batch 5, p-Xylene/MeOH (1:9), seed E/G, heat T 50, isolation T 25, 19.5 mL/g, SP 3): 7500 µg/mL (≈ 16 mM)
- solubility ([2]; liquors of the equilibrated crystallisation suspension, 25 °C, batch 5, Cyclohexanone/MeOH (1:3), seed G, heat T 25, isolation T 25, 30.0 mL/g, SP 7): 29300 µg/mL (≈ 62.5 mM)
- Nature (thermodynamic stability of crystal form) [1]: Metastable

SMILES: CCCCCc1cc(OC(=O)c2ccc3ccccc3c2)c2c(c1)OC(C)(C)[C@@H]1CCC(C)=C[C@@H]21 [G, H]
- Form Isolated 1-3 d ([1]; Experiment No. 5, Toluene/EtOH (1:9), 50 °C): H/G(tr)
- Form Isolated 1-3 d ([1]; Experiment No. 6, n-BuOH, 50 °C): H/G(tr)
- Form Isolated 1-3 d ([1]; Experiment No. 11, Toluene/EtOH (1:9), 25 °C): G/H
- Form Isolated 1-3 d ([1]; Experiment No. 12, Heptane, 25 °C): H/G
